Experimental data as given in ChEMBL document CHEMBL1122167, “Syntheses and adrenergic agonist properties of ring-fluorinated isoproterenols” (J Med Chem, 1982).

Tests used:
Adrenergic receptor beta [1] = molecular target: Adrenergic receptor beta (Rattus norvegicus, UniProt P18090+P10608+P26255)
[2] = molecular target: Adrenergic receptor alpha
Adrenergic receptor beta [3] = molecular target: Adrenergic receptor beta (Homo sapiens, UniProt P08588+P07550+P13945)
Description: Evaluated for Beta adrenergic receptor agonistic property in isolated guinea pig atria

| SMILES | IC50 (Adrenergic receptor beta [1]) [µM] | IC50 [2] [µM] | EC50 (Adrenergic receptor beta [3]) [µM] |
| --- | --- | --- | --- |
| CC(C)NCC(O)c1cc(O)c(O)c(F)c1 (stereo not given) | 0.6 | 55 | 0.02 |
| CC(C)NCC(O)c1cc(O)c(O)cc1F (stereo not given) | 5.5 | 80 | 30 |
| CC(C)NCC(O)c1ccc(O)c(O)c1F (stereo not given) | 0.5 | 59 | 0.01 |
| CC(C)NCC(O)c1ccc(O)c(O)c1 (racemic) [ISOPROTERENOL] |  | > 100 |  |
